How the values were obtained:
[1] = test system: low EGFR-expressing Chronic myeloid leukemia (CML) cell line (K562); assay: Macrophage engulfment of K562 cells; type: cell-based, human; details: K562, negative control cell line
RAW264.7-ISG cells = assay: RAW264.7-ISG interferon reporter cells co-cultured with A20 lymphoma cells; type: cell-based, murine; details: co-culture with A20 lymphoma cells, 24 hours
Method: FIG. 8D: Macrophage:Toledo lymphoma co-cultures were harvested 2 hours into phagocytosis assays in the presence of rituximab ([…]), SIRPα-Fc-CD40L ([…]), or the combination of both agents. Macrophages were isolated by CD11b+FACS, RNA was prepared, cDNA synthesized, and gene expression (IFNa1, IFNb1, CD80, and CD86) assessed by qRT-PCR. Fold change was calculated using DDCT and values obtained from the housekeeping gene ACTB, and the corresponding values from untreated samples. […] After 2 hours, co-cultures were isolated from tissue culture vessels and were stained with a fluorescently conjugated CD11b antibody to discriminate macrophages. Cells were then assessed by flow cytometry for the co-localization of fluorescent signal from both cells types. […] After 24-hours type I interferon induced luminescence was assessed using a luminometer. The maximum luminescence (RLU) from each experiment was set to 1, and all other samples were normalized accordingly. […]
Additionally, a macrophage reporter system was used to detect activation. […] After 24 hours, culture supernatant was collected and assessed for luciferase activity, which would indicate activation of a type I interferon response in the RAW-ISG reporter cells. […]

[2] = test system: A431, HCC827, K562, HCC1954 and MCF7 cells; assay: Macrophage phagocytosis of EGFR/HER2 human tumor cell line panel; type: cell-based; details: variety of human tumor cell lines

Question: With “SIRPα-Fc-CD40L: Generic name of the SIRPα ECD-Fc-CD40L ECD chimeric protein; human or murine version depending on the test system” as the substance, how does the phagocytic activity [1] read?
Answer: Its phagocytic activity is “no phagocytic activity”.

Question: What about the “type I interferon response, interferon gene-driven luciferase activity” value (RAW264.7-ISG cells) of the same substance?
Answer: The value was “stimulates an increase in interferon gene-driven luciferase activity”.

Question: And the “macrophage phagocytosis of tumor cells” value [2]?
Answer: Its value is “stimulated macrophage phagocytosis of tumor cells”.

Reference: patent publication US20200071380A1, “COMBINATION THERAPIES COMPRISING SIRP ALPHA-BASED CHIMERIC PROTEINS” (Shattuck Labs, Inc., priority 2018, published 2020)
